Experimental data from patent US20090311203A1, “GEM-DIFLUORIDE C-GLYCOPEPTIDE COMPOUNDS, THEIR PREPARATION AND USE PARTICULARLY FOR PRESERVATION OF BIOLOGICAL MATERIALS” (INSTITUT NATIONAL DES SCIENCES APPLIQUEES DE ROUEN (INSA), priority 2006, published 2009).
Several values for one entry are separate records, joined by “and”; a condition that tells them apart may be missing. Identical values can stand only once.

Legend:
Assay type in all cases: cell-based
[1] = system: HELA cells; assay: Survival of HELA cells subjected to UVC; conditions: exposed to UVC; low concentrations; FIGS. 37, 38 and 39
Experimental: FIGS. 37, 38 and 39 are representations of the effects of the various derivatives on the survival of HELA cells subjected to UVC.
Studies were conducted on HELA cells, exposed to UVC, in the presence of the various synthesised compounds, at low concentrations.

[2] = system: primary adult skin fibroblasts; assay: Protection of fibroblasts against UV-C exposure; conditions: 37° C., 8.6 mM; for cell protection against UV (in words): UV-C 2 hours; for live cells still observed: UV-C (254 nm) for 2 hours
Experimental: In the following experiments, the studies were conducted at 37° C. on adult primary skin fibroblasts. The cells were exposed to UV-C irradiation for 2 hours in the presence of AAGP derivatives.

[3] = system: primary adult skin fibroblasts; assay: Preservation of fibroblasts at low temperature (−3° C.); conditions: 8.6 mM
Experimental: The purpose of the following experiment is to test the preservation activity of AAGP 11 compounds at low temperatures.
The cells are thus incubated at −3° C. in the presence of the compound AAGP 11.

SMILES	survival of HELA cells compared to the control (in words) [1]	cell protection against UV (in words) [2]	other results
C[C@H](NC(=O)[C@@H](N)CCCCNC(=O)C(F)(F)[C@]1(O)O[C@H](CO)[C@H](O)[C@H](O)[C@H]1O)C(=O)O [Compound 12]	inferior results compared to the control		
N[C@@H](CCCCNC(=O)C(F)(F)[C@]1(O)O[C@H](CO)[C@H](O)[C@H](O)[C@H]1O)C(=O)NCC(=O)O [Compound 30]	improve the survival of these cells compared to the control		
C[C@H](NC(=O)[C@@H](N)CCCNC(=O)C(F)(F)[C@]1(O)O[C@H](CO)[C@H](O)[C@H](O)[C@H]1O)C(=O)O [Compound 26]	inferior results compared to the control		
C[C@H](NC(=O)[C@@H](N)CCCCNC(=O)C(F)(F)[C@]1(O)O[C@H](CO)[C@H](O)[C@H](O)[C@H]1O)C(=O)O [Compound 11]	Very satisfactory results	high level of cell	live cells still observed ([2]; after 72 hours, serum-free medium with 0.5 mM EDTA, all control cells dead): 92% live cells are still; live cells still observed ([2]; after 4 days, almost all dead in the control): After 4 days, 60% live; survival ([3]; after 6 days at −3° C., serum-free medium with 0.5 mM EDTA, control cells all dead): approximately 100% survival; cell preservation activity at low temperature (in words) ([3]; −3° C., listed as AAGP-11): very high preservation activity and 11 displays a very high
COC(=O)[C@H](C)NC(=O)[C@H](CCCCNC(=O)C(F)(F)[C@]1(O)O[C@H](COCc2ccccc2)[C@H](OCc2ccccc2)[C@H](OCc2ccccc2)[C@H]1OCc1ccccc1)NC(=O)OCc1ccccc1 [AAGP-15]		excellent protective properties	
